These are literature values, as cited in patent publication US20080286234A1, “Method for treating demyelinating diseases” (priority 2007, published 2008).

The conditions of this data set: MS patients; for reduction in the rate of MS relapses / decrease in relapse rate: vs. placebo.

In the case of “natalizumab: monoclonal antibody against integrin-(4 used to treat multiple sclerosis and Crohn's disease”, the “slowed the progression of disability (as measured by EDSS)” value was 42% and the “reduction in the rate of MS relapses / decrease in relapse rate” value is reported as 67%.

For glatiramer acetate, the “reduction in the rate of MS relapses / decrease in relapse rate” value is on record as 30-35%. Further, under “clinical trials”, the “effect on exacerbations in clinical trials” value was “reduce the number and severity of exacerbations”; the “effect on new, gadolinium-enhanced brain lesions on MRI scans” value is recorded as “reduce the number of new, gadolinium-enhanced brain lesions”.
